The values below come from US20210205264A1, “USE OF DELTA-TOCOTRIENOL FOR TREATING CANCER” (H. LEE MOFFITT CANCER CENTER & RESEARCH INSTITUTE INC., priority 2018, published 2021).

Peptide text beside a SMILES is read from it. * marks the point of attachment. Cbz = O=C(OCc1ccccc1)*

In test [1] the target is T1, hCAS (Homo sapiens, UniProt P55060).
T1 construct: endogenous in cells; host or cells: MiaPaCa-2 human pancreatic cancer cells
T1 sequence (P55060 1-971): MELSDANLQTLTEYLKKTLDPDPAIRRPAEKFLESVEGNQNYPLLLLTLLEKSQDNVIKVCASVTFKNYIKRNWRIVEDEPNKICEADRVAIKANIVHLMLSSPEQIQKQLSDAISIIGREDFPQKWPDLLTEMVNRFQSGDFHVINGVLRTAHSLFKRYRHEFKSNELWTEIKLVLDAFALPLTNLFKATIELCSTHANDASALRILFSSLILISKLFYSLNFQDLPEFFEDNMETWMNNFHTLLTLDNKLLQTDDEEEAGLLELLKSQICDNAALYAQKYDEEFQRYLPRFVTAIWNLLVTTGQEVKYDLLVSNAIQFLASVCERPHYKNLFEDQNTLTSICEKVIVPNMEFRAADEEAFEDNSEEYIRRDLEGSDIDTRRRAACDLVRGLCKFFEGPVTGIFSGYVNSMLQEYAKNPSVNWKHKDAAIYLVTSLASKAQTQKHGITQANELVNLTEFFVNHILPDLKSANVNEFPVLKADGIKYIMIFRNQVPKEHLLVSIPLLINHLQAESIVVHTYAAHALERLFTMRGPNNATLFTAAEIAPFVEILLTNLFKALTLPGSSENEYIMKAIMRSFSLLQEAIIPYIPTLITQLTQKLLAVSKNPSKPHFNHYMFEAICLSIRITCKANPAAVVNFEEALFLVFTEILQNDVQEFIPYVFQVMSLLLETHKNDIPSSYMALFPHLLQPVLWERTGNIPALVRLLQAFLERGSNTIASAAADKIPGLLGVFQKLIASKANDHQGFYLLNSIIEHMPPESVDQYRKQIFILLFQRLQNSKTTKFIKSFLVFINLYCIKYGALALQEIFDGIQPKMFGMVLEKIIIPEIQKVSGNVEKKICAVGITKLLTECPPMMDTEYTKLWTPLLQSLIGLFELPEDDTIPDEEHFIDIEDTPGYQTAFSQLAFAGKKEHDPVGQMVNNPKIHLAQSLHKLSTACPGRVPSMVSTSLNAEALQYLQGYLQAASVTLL
Nature of the test: Streptavidin bead capture of hCAS from treated MiaPaCa-2 cells. Format: binding. The conditions noted are these: MiaPaCa-2 cells treated 24 hours. The procedure:
To confirm that δ-T3 binds to hCAS in intact cells, biotinylated δ-T3 (B-δ-T3) was prepared by chemically coupling the —OH group of δ-T3 to the —COOH of biotin using a PEG-iodoactamide linker (FIG. 18).
MiaPaCa-2 human pancreatic cancer cells were treated for 24 hours with biotin alone (B), B-δ-T3 or B-TOCOPH. The cells were then lysed, and the lysates incubated with streptavidin beads, and the captured proteins processed for Western blotting.

Test [2] deals with β-catenin. Nature of the test: β-catenin immunofluorescence and Western blot in CCSCs. Conditions: MG132 25 μM, 3-methyladenine 10 mM, caspase 3 inhibitor 20 μM, calpain II inhibitor 25 μM. Format: cell-based, human. The text has this:
FIGS. 9A, 9B, 9C, and 9D show quantification of β-catenin in the nucleus and cytoplasm of CCSCs with confocal microscopy (FIGS. 9A & 9B) after treatment with vehicle, aspirin, d-T3, and aspirin+d-T3.
As noted above, stability of the β-catenin complex by inactivation of APC leads to stabilization and nuclear translocation of β-catenin and to transcriptional activation of β-catenin target genes such as c-Myc and cyclin D1. […] Furthermore, d-T3 inhibition of CCSCs is associated with the downregulation of β-catenin, c-Myc, cyclin D1, and survivin as measured by Western blot in CCSCs (FIG. 9D).
For orientation: Immunoblotting shows a protein as a band on a membrane.

Test [3] concerns MiaPaCa-2 cell. In words: MiaPaCa-2 cell viability at increasing concentrations. The conditions noted are these: increasing concentrations. The test is classed as cell-based, human.
The target of test [4] is T1, hCAS. Nature of the test: Competitive affinity-isolation of hCAS in MiaPaCa-2 cell lysate. The test is classed as binding. The conditions noted are these: excess free compound. As to the method:
This experiment used a synthetic biotin-δ-tocotrienol conjugate (shown below to inhibit growth activity of cultured MiaPaca-2 human pancreatic cancer cells) to confirm affinity-isolation of hCAS. To confirm that δ-T3 binds to hCAS in intact cells, biotinylated δ-T3 (B-δ-T3) was prepared by chemically coupling the —OH group of δ-T3 to the —COOH of biotin using a PEG-iodoactamide linker (FIG. 18). […] Affinity-isolation of hCAS was inhibited in the presence of free δ-tocotrienol but not with free δ-tocopherol.

Test [5] has as its system CCSCs. Nature of the test: Annexin V FITC/PI flow cytometry apoptosis assay in CCSCs. Format: cell-based, human. Conditions: CCSCs. As to the method:
(§1) FIGS. 10A, 10B, 10C, and 10D show induction of apoptosis measured by flow cytometry (FIG. 10A) and confocal microscopy (FIG. 10B) in CCSCs after treatment with vehicle, aspirin, d-T3, and aspirin+d-T3. Effect of BID inhibitor on apoptosis in CCSCs after treatment with aspirin or d-T3 (FIG. 10C). Induction oft-BID in CCSCs after treatment with vehicle, aspirin, d-T3, and aspirin+d-T3 (FIG. 10D).
(§2) d-T3 can induce selective killing of CCSCs through the BH3 interacting-domain death agonist (BID). […] It should be noted that these in vitro results are consistent with the in vivo observation of the selective induction of apoptosis in APC mutant colon crypt cells in the ApcMin/+ mice but not in the normal intestinal cells of the AOM rat CRC model or NOD/SCID mice. […] Although the proapoptotic activity of d-T3 is a consistent observation of d-T3 anticancer activity in all of the published reports, the mechanism by which d-T3 induces apoptosis is poorly understood. Apoptotic death is regulated by the death receptor (extrinsic) and mitochondrial (intrinsic) pathways. These 2 pathways crosstalk under certain conditions through caspase-8-mediated cleavage of BID, a BH3-only Bcl-2 family member. The activated and truncated BID (tBID) then engages the intrinsic pathway for efficient apoptosis induction. To obtain preliminary information regarding the mechanisms by which d-T3 induces apoptosis in CCSCs, the activation of BID was measured after 24-hour treatment with vehicle, aspirin (5 mM), d-T3 (50 μM), and aspirin combined with d-T3 in CCSCs by Western blotting.

Test [6] deals with intestinal stem cells of ApcMin/+ mice. In words: Caspase 3 staining of intestinal crypts in ApcMin/+ mice. The test is classed as in vivo. The conditions noted are these: small intestinal crypts of ApcMin/+ mice. From the text:
(§3) Although substantial preclinical evidence exists regarding the preventive activity of d-T3 and g-T3 in various types of cancers, there is no report of d-T3 prevention of colon cancer despite evidence of activity in colon cell lines and xenograft models. […] Treatment with aspirin alone reduced adenoma formation by 38%, and treatment with d-T3 alone reduced adenoma formation by 44%, while treatment with the combination of aspirin and d-T3 reduced adenoma formation by 58%.

Test [7] has as its system colon polyps. Conditions: patients with stage I-III colon cancer following treatment; 27% without aspirin; cited from earlier work.
Test [8] relates to CCSCs. Nature of the test: miRNA profiles in CCSCs. The test is classed as cell-based, human. The conditions noted are these: 24-hour treatment; aspirin 5 mM, d-T3 10 μM. The text has this:
Given the results, and without intending to be bound by any theory, it appears that the induction of apoptosis can be one mechanism by which d-T3 prevents CRC and augments CRC prevention activity. BID knockout can diminish this effect. The biorepository as well as materials generated from studies can be used to explore other mechanisms of d-T3 action such as anti-inflammatory, mediation of the immune system, anti-angiogenesis, and alterations in metabolism. To this end, miRNA profiles were conducted that are altered with d-T3, aspirin, and d-T3 with aspirin treatment in CCSCs. To discover early miRNAs that are likely to influence activity, these cells were deliberately treated with doses of these agents at a duration when there were no phenotypic changes of apoptosis.

In test [9] the test system is ApcMin/+ mice. In words: Adenoma (intestinal polyp) formation in ApcMin/+ mice. The test is classed as in vivo.
Source text: as §3, with “FIGS. 1A and 1B show the number of intestinal polyps (FIG. 1A) and H&E staining of polyps (FIG. 1B) in ApcMin/+ mice treated with vehicle (V), aspirin (Asp), d-T3, and combination of aspirin+d-T3. Black dots in FIG. 1B point out polyps in the intestine. Although” for “Although”

Test [10] has as its system BID. In words: Activation of BID (tBID) by Western blotting in CCSCs. Format: cell-based, human. The conditions noted are these: 24-hour treatment; aspirin 5 mM, d-T3 50 μM. The procedure:
as §1
as §2, with “These 2 pathways crosstalk under certain conditions through caspase-8-mediated cleavage of BID, a BH3-only Bcl-2 family member. The activated and truncated BID (tBID) then engages the intrinsic pathway for efficient apoptosis induction.” left out

Test [11] relates to human CCSCs. In words: Orthotopic (cecum) model of luciferase expressing human CCSCs in NOD-SCID mice. Format: in vivo. As to the method: FIGS. 8A, 8B, 8C, and 8D show growth of cecal tumor volume (FIGS. 8A & 8B) and liver metastasis score (FIGS. 8C & 8D) in orthotopic model of CCSCs after treatment with vehicle, aspirin, d-T3, and aspirin+d-T3.
In vivo model of human CCSC were developed by implanting the stably transfected luciferase expressing CCSCs in the cecum of NOD-SCID mice. In this model, tumor growth, metastasis, and survival are monitored twice weekly by IP injection of luciferin (150 mg/kg body weight) and imaged using the IVIS 200 Bioluminescence imaging system. […] These findings strongly indicate that d-T3 targets CCSCs and enhances the ability of aspirin to target these cells.

As to `O=C(O)CCCC[C@@H]1SC[C@@H]2NC(=O)N[C@@H]21` [biotin], in test [1], the “hCAS bound by streptavidin beads from lysates of treated cells” value was “not”.
For the compound `CC(C)C[C@@H](C=O)NC(=O)[C@H](CC(C)C)NC(=O)[C@H](CC(C)C)NC(=O)OCc1ccccc1` [MG132, reference compound] (Cbz-Leu-Leu-Leu-aldehyde), in [2], the “effect on d-T3 induced degradation of β-catenin” value is “inhibited”.
Take `Cc1cc(O)cc2c1O[C@](C)(CCC[C@H](C)CCC[C@H](C)CCCC(C)C)CC2` [TOCOPH, δ-Tocopherol, reference compound]: the “effect on cell viability” value in test [3] was “least effect”. Also, the “affinity-isolation of hCAS / hCAS binding to biotin-T3 in presence of free competitor” value in test [4] is listed as “does not”; in [4] (listed as δ-tocopherol), “not”.
Turning to `COc1ccc(S(=O)(=O)NCCCC(=O)Nc2ccc(Sc3ccc(N)cc3)cc2)cc1` [BI-6C9], in test [5], the “effect of BID inhibitor on induction of apoptosis by aspirin” value was “not” and the “effect of BID inhibitor on induction of apoptosis by d-T3” value is on record as “negates the induction of apoptosis”.
For `CC(=O)Oc1ccccc1C(=O)O` [aspirin, reference compound], the “apoptosis detected by caspase 3 staining” value in test [6] is “minimal to no staining”. Moreover, the “rate of polyp formation at 1-year colonoscopy” value in [7] is given as 17%. In test [8], the “down-regulation of miRNAs compared with vehicle (number)” value amounted to 4 miRNAs and the “up-regulation of miRNAs compared with vehicle (number)” value is 2 miRNAs. In test [9], the reduced adenoma formation was determined as 38%. For the same compound, in test [10], the “activation of tBID” value is on record as “did not”. Also, in test [11], the “growth of human CRC stem cells (cecal tumor)” value is “inhibited”. Also, the “metastases of human CRC stem cells” value in [11] (liver metastasis) was “inhibited”.
For the compound `Cn1cnc(N)c2ncnc1-2` [3-methyladenine, reference compound], in [2], the “effect on d-T3 induced degradation of β-catenin” value is recorded as “inhibited”.
